The target of assay [1] is T1, IDO1 in IFNγ stimulated HeLa cells (Homo sapiens, UniProt P14902).
T1 construct: endogenous in cells; host or cells: HeLa cells stimulated with IFNγ
Briefly: IDO1 inhibition assay in HeLa cells stimulated with IFNγ. The class given is cell-based. As to conditions: for inhibition at 8 µM: HeLa. As for the experimental part: Lead compounds prioritized in the recombinant IDO1 inhibition assay were advanced to a cellular IDO1 inhibition assay.
Protocol: HeLa cells were trypsinized and diluted to a density of 2×10^5 cells/mL in cell culture medium (DMEM+10% Fetal Bovine Serum (FBS)+1% Penicillin/Streptomycin). Sterile L-tryptophan was added to the cells at a final concentration of 300 μM. IFNγ at a final concentration of 100 ng/mL was added to HeLa cells to stimulate IDO1 expression. Unstimulated HeLa cells in the absence of IFNγ were used for background subtraction. HeLa cells with or without IFNγ were plated in 96-well Greiner black assay plates at a density of 22,000 cells/well. […] 8 μL of each compound dilution were then dispensed into the Greiner black 96-well assay plate(s) containing HeLa cells in triplicate, yielding final assay compound concentrations of 8 μM serially diluted to 1.27 nM. The plates were incubated at 37° C. with 5% CO2. After 48 hours, 24 μL of 0.5 M methyl isonipecotate in DMSO were added into each well and the plates were sealed and incubated at 37° C. with 5% CO2 overnight. The resulting fluorescence was measured in a BioTek Synergy H1 plate reader with a 400 nm excitation filter and a 510 nm emission filter. The fluorescence intensity of each well was corrected for the background observed in wells with non-IFNγ-treated cells and was expressed as a fraction of the intensity observed in wells of IFNγ-treated cells with vehicle only.

The target in another assay is T2, recombinant human IDO1 (Homo sapiens, UniProt P14902).
T2 construct: purchased BPS Biosciences 72037
Briefly: IDO1 Fluorogenic Inhibitor Screening Assay (enzyme inhibition). It is filed as biochemical. As to the method:
The IDO1 Fluorogenic Inhibitor Screening Assay Kit (72037, BPS Biosciences) was used to measure the enzyme inhibition of human IDO1 in the presence of macrocyclic peptide ligands. IDO1 catalyzes the conversion of the essential amino acid L-tryptophan (L-Trp) to N-formylkynurenine (NFK). In the assay, the test inhibitor and enzyme were added to a sample containing L-Trp substrate. After incubation for 1 h at room temperature, 20 μL Fluorescence Solution was added and incubated at 37° C. for 4 h to produce a fluorescent product. Activity was measured by reading sample fluorescence at λ=510 nm following excitation of the reaction product at λ=400 nm.

Assay [2] addresses T3, His-tagged IDO1 human recombinant protein (Homo sapiens, UniProt P14902).
T3 construct: purchased BPS Biosciences 71182
Nature of the assay: IDO1 ELISA (Affinity Assay): sandwich ELISA, biotinylated ligand immobilized on NEUTRAVIDIN plate. As to conditions: binding analysis of VHL-linked Epitope 2 ligand; read-out: EC50. The class given is binding. As for the experimental part: Protocol: A black 96-well NEUTRAVIDIN® Coated High Binding Capacity plate (15510, Pierce) was coated with 2 μM biotinylated macrocyclic peptide ligand in TBS (25 mM Tris-HCl, 150 mM NaCl, pH 7.6) for 2 h at room temperature. The plate was aspirated and then washed with Wash Buffer (0.05% (v/v) TWEEN® 20 in PBS, 6×). His-tagged IDO1 human recombinant protein (71182, BPS Biosciences) was serially diluted in Wash Buffer (from 200 to 0 nM) and incubated in the designated microwells for 1 h at room temperature. Microwells were aspirated and subsequently washed with Wash Buffer (11×). To detect the bound IDO1 protein, Alkaline Phosphatase (AP)-conjugated Anti-6×HIS TAG® antibody [HIS-1] (ab49746, Abcam) was prepared at 1:10,000 dilution and added to the microwells for 1 h at room temperature. The plate was aspirated and washed with Wash Buffer (5×). ATTOPHOS® AP Fluorescent Substrate System (S1000, Promega) was employed to develop the microwells. Using an excitation wavelength of 430 nm, fluorescent emission at 535 nm was recorded by Beckman Coulter DTX880 photometer. Titration curves were fit using a four-parameter regression curve fitting program to determine EC50 values.
For these assays, a dilution series of His-tagged IDO1 human recombinant protein was captured using the macrocyclic peptide ligands immobilized on a NEUTRAVIDIN®-coated plate. […] The sequences of the peptide ligands are listed in Table 1, where D-amino acids are denoted in lowercase, Me-Trp=1-methyl-L-tryptophan, and F-Phe=4-fluoro-L-phenylalanine. Chemical structures are shown below Table 1.
The D-alanine substituted, biotin-PEG3-modified macrocycles were tested in the IDO1 ELISA (Affinity assay). For these assays, a dilution series of His-tagged IDO1 human recombinant protein was captured using macrocycles immobilized on a NEUTRAVIDIN®-coated plate.

[3] abbreviates: read-out: % inhibition at 8 μM, HeLa, Table 17.
The mark [4] stands for this setting: Table 18, read-out: Inhibition HeLa IC50.
[5] abbreviates: Table 19, read-out: Inhibition HeLa cells IC50.
Setting [6] is: Table 18, read-out: Inhibition Recombinant IDO1 IC50.
[7] abbreviates: Table 19, read-out: Inhibition Human rIDO1 IC50.
Where [8] appears, read: PEG linker length series, wyry, read-out: IC50.
Where [9] appears, read: Table 17, read-out: Inhibition Recombinant IDO1 IC50.
Where [10] appears, read: N-methylated heterobiligands, PEG6 linker, read-out: IC50.
[11] abbreviates: PEG linker length series, wyvay, read-out: IC50.
Setting [12] is: Table 15, read-out: Inhibition Recombinant IDO1 IC50.

Read-outs that look alike come from different tables or passages of the source. Numbered stars: 1 amine (or outer) side, 2 acyl side, 3 side chain; on linkers, the order of the positions; unused ones are H or OH. Bridge positions count the residues as written; N and C are the ends. Square brackets hold non-standard residues; d marks the D form. Triazole bridges read from a SMILES are 1,4-linked. Ends that are not written are not given here. Peptide text beside a SMILES is read from it. * marks the point of attachment. NH(CH2CH2O)5CH2CO = O=C(COCCOCCOCCOCCOCCN[*:1])[*:2]; X2 = O=C(CCCCCSc1nonc1/C(=N/O)Nc1ccc(F)c(Br)c1)*; X1 = O=C(CSc1nonc1/C(=N/O)Nc1ccc(F)c(Br)c1)*; Trp(1-Me) = Cn1cc(C[C@H](N)C(=O)O)c2ccccc21; PEG8 = NCCOCCOCCOCCOCCOCCOCCOCCOCCC(=O)O; Lys(N3) = [N-]=[N+]=NCCCC[C@H](N)C(=O)O; Phe(4-F) = N[C@@H](Cc1ccc(F)cc1)C(=O)O; PEG6 = NCCOCCOCCOCCOCCOCCOCCC(=O)O; Pra = C#CC[C@H](N)C(=O)O Some results are limits rather than exact numbers.

T1 sequence (P14902 whole entry): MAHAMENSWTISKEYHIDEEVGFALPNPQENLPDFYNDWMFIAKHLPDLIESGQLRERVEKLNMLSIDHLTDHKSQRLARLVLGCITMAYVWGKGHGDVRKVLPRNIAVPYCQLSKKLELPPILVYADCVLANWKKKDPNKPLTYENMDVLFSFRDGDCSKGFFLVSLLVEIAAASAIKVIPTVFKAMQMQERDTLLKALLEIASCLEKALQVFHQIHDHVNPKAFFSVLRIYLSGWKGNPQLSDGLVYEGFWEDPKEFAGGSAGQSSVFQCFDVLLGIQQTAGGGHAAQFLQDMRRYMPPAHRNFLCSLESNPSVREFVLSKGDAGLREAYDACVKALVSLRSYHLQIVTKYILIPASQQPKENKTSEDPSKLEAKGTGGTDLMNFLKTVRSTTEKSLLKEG
T2 sequence (P14902 whole entry): as above
T3 sequence (P14902 whole entry): as above

With `CC(C)[C@H]1NC(=O)[C@@H](Cc2ccc(O)cc2)NC(=O)[C@@H](Cc2c[nH]c3ccccc23)NC(=O)[C@@H](NC(=O)CCOCCOCCOCCOCCOCCOCCOCCOCCNC(=O)CSc2nonc2/C(=N/O)Nc2ccc(F)c(Br)c2)Cc2cn(nn2)CCCC[C@@H](C(N)=O)NC(=O)[C@@H](Cc2ccc(O)cc2)NC(=O)[C@@H](C)NC1=O` [Deprotected-Inh-PEG8-wyvay] ({X1-PEG8}-[Pra][dW][dY][dV][dA][dY][Lys(N3)]-NH2; triazole 1-7), the inhibition (in general, the share of the control response that was lost under treatment) at 8 µM in assay [1] (setting [3]) amounted to 77.3%.
Consider `CC(C)[C@H]1NC(=O)[C@@H](Cc2ccc(O)cc2)NC(=O)[C@@H](Cc2c[nH]c3ccccc23)NC(=O)[C@@H](NC(=O)COCCOCCOCCOCCOCCNC(=O)CCCCCSc2nonc2/C(=N/O)Nc2ccc(F)c(Br)c2)Cc2cn(nn2)CCCC[C@@H](C(N)=O)NC(=O)[C@@H](Cc2ccc(O)cc2)NC(=O)[C@@H](C)NC1=O` [Inh2-PEG5-wyvay] (X2-[NH(CH2CH2O)5CH2CO][Pra][dW][dY][dV][dA][dY][Lys(N3)]-NH2; triazole 2-8), for which the concentration for half-maximal inhibition (IC50) (as a rule, the concentration that gives 50% inhibition) in assay [1] (setting [4]) came to 0.221 µM; in assay [1] (setting [5]), 0.221 µM; at recombinant human IDO1 (setting [6]), 539 nM; at recombinant human IDO1 (setting [7]), 539 nM.
With `O=C(O)CCCCCSc1nonc1/C(=N/O)Nc1ccc(F)c(Br)c1` [Inh2], the IC50 in assay [1] (setting [4]) stood at 0.997 µM; in assay [1] (setting [5]) it was 0.997 µM; on recombinant human IDO1 (setting [6]), 343 nM; on recombinant human IDO1 (setting [7]), 343 nM.
In the case of `N=C(N)NCCC[C@H]1NC(=O)[C@@H](Cc2ccc(O)cc2)NC(=O)[C@@H](Cc2c[nH]c3ccccc23)NC(=O)[C@@H](NC(=O)CCOCCOCCOCCOCCOCCOCCNC(=O)CSc2nonc2/C(=N/O)Nc2ccc(F)c(Br)c2)Cc2cn(nn2)CCCC[C@@H](C(N)=O)NC(=O)[C@@H](Cc2ccc(O)cc2)NC1=O` [Inh-PEG6-wyry] ({X1-PEG6}-[Pra][dW][dY][dR][dY][Lys(N3)]-NH2; triazole 1-6), in assay [1] (setting [3]), the inhibition at 8 µM came out at 47.8%. The “Inhibition HeLa IC50 nM” value in assay [1] (Table 17) is “no curve fit”. At recombinant human IDO1, the “IDO1 inhibition potency relative to the small molecule (Inh) alone, in words” value was “more than three times as potent as Inh alone”. Further, the IC50 at recombinant human IDO1 (setting [8]) and on recombinant human IDO1 (setting [9]) was 338 nM each time.
For the compound `CC(C)[C@H]1NC(=O)[C@@H](Cc2ccc(O)cc2)NC(=O)[C@@H](Cc2c[nH]c3ccccc23)NC(=O)[C@@H](NC(=O)CCOCCOCCOCCOCCOCCOCCNC(=O)CSc2nonc2/C(=N/O)Nc2ccc(F)c(Br)c2)Cc2cn(nn2)CCCC[C@@H](C(N)=O)NC(=O)[C@@H](Cc2ccc(O)cc2)NC(=O)[C@@H](C)NC1=O` [Inh-PEG6-wyvay] ({X1-PEG6}-[Pra][dW][dY][dV][dA][dY][Lys(N3)]-NH2; triazole 1-7), the inhibition at 8 µM came out at 36.1% in assay [1] (read-out: % inhibition at 8 μM, HeLa cells, Table 19) and 36.1% in assay [1] (setting [3]). Further, the IC50 came out at 35.7 µM in assay [1] (Table 17, cells print μM, read-out: Inhibition HeLa IC50); 35.7 µM in assay [1] (setting [5]); 44 nM at recombinant human IDO1 (setting [10]); 265 nM at recombinant human IDO1 (setting [11]); 44 nM on recombinant human IDO1 (setting [12]); 265 nM at recombinant human IDO1 (setting [7]).
Take `O=C(O)CSc1nonc1/C(=N/O)Nc1ccc(F)c(Br)c1` [Inh]: the EC50 (in general, the concentration giving half of the maximal effect) in assay [2] is greater than 1000 nM. The inhibition at 8 µM in assay [1] (setting [3]) turned out to be 99.6%. Also, the half-maximal inhibitory concentration (IC50) in assay [1] (Table 15, read-out: Inhibition HeLa cells IC50) came out at 0.125 µM; in assay [1] (Table 17, read-out: Inhibition HeLa IC50) it was 0.244 µM; in assay [1] (setting [4]), 0.406 µM; in assay [1] (setting [5]) it was 0.406 µM; at recombinant human IDO1 (setting [10]) it was 928 nM; on recombinant human IDO1 (setting [8]), 1090 nM. In addition, the IC50 on recombinant human IDO1 (setting [11]) worked out at 1050 nM; at recombinant human IDO1 (setting [12]), 928 nM; on recombinant human IDO1 (setting [9]), 1090 nM; on recombinant human IDO1 (setting [6]) it was 1090 nM; at recombinant human IDO1 (setting [7]), 1050 nM; on recombinant human IDO1 (effect of linker and of protection of the inhibitor, read-out: IC50) it was 616 nM. In addition, the half-inhibitory concentration (IC50) on recombinant human IDO1 (linker composition series, read-out: IC50) is 693 nM.
As for “d-Hex-Inh-PEG4-wyvay: heterobiligand with linker modified to increase lipophilicity, PEG4 ([dW][dY][dV][dA][dY]; also: d-Hex-inhibitor via PEG4 linker)”, the “Cellular IDO1 inhibition, in words” value in assay [1] is “only showed inhibition at higher concentrations”.
The same measure, in the same setting: the value for “d-Hex-Inh-PEG5-wyvay: heterobiligand with linker modified to increase lipophilicity, PEG5 ([dW][dY][dV][dA][dY]; also: d-Hex-inhibitor via PEG5 linker)” was “good inhibition/cell penetration”; that for “d-Hex-Inh-PEG6-wyvay: heterobiligand with linker modified to increase lipophilicity, PEG6 ([dW][dY][dV][dA][dY]; also: d-Hex-inhibitor via PEG6 linker)” was “only showed inhibition at higher concentrations”.
As to “nlf(Me-Trp)(F-Phe)-Ge-VHL: Epitope 2 peptide ligand linked to VHL E3 ligase ligand ([dN][dL][dF][Trp(1-Me)][Phe(4-F)]; also: Ge linker to VHL E3 ligase ligand)”, in assay [2], the EC50 was 30 nM.

The values above are taken from patent US12216122B2, “Compositions and methods relating to detection, inhibition, and imaging of indoleamine 2,3-dioxygenase 1 (IDO1)” (Regeneron Pharmaceuticals, Inc., priority 2019, dated 2025).
